Data as given in US12338206B2, “Compounds and their uses as thyroid hormone receptor agonists” (Nanjing Ruijie Pharma Co., Ltd., priority 2020, dated 2025).

Key:
TRα LBD = TRα LBD (Homo sapiens, UniProt P10827); assay: In vitro thyroid hormone receptor binding assay (TR-FRET coactivator assay), TRα LBD; conditions: Biotin-SRC2-2, 1 hour at room temperature
Procedure: (§1) In Vitro Thyroid Hormone Receptor Binding Assay
(§2) The interaction between the compounds of present invention and Human Thyroid Receptor (TR) are evaluated by Time-Resolved Fluorescence Resonance Energy Transfer (TR-FRET) competition assay. FRET describes a radiation-free energy transfer between two chromophores: a donor fluorophore in its excited state can transfer energy to an acceptor fluorophore in close proximity (typically <10 nm). In contrast to standard FRET, TR-FRET unites time-resolved fluorescence (TRF) and the FRET principle. TRF use a long-lifetime lanthanide chelate as the donor species, while lanthanide chelates are unique in that their excited-state lifetime can be on the order of a millisecond or longer. Suitable neighbors for FRET are known in the art and can be obtained. The assay was adopted from the manual of LanthaScreen™ TR-FRET Thyroid Receptor beta Coactivator Assay kit from Invitrogen.
(§3) The assay is performed in following steps: first, prepare reaction buffer containing 50mMTris-HCl (pH7.4) with 100 mM NaCl, 1mMEDTA, 50mMKF, 1mMDTT, 1mMMgCl2, 10% glycerol, 0.01% NP-40, 0.1% BSA. Second, use the buffer to prepare the appropriate dilution series of the test and reference compounds. The3,3′,5-Triiodothyronine (T3) was used aspositive control agonist. Third, add 5 μl of 4× compoundserial dilution and 5 μl TRa LBD (4×, 4 nM) (or 5 μl TRβ LBD, 4×, 2 nM) into 384-well plate (784075, greiner). Then, add 10 μl of a solution consist of 400 nM Biotin-SRC2-2 (2×) and anti-GST Eu (1:200, 2×) and 50 nM anti-biotin-d2 (2×) in 1× reaction buffer to initiate the reaction. Centrifuge the plates at 1000 g for 1 min and then incubate 1 hour at room temperature protected from light. Finally, read the plate at wavelengths of 665 nm and 615nmonEnvision2104 plate reader.
(§4) A ratio (Ratio665 nm/615 nm−Ratiobackground) is calculated for each well. Percentage of activity, as well as EC50 was calculated. Effect-dose curve was plotted. Relative selectivity was calculated as the ratio of EC50TRα/EC50TRβ.

TRβ LBD = target: T1, TRβ LBD (Homo sapiens, UniProt P10828); assay: In vitro thyroid hormone receptor binding assay (TR-FRET coactivator assay), TRβ LBD; conditions: for EC50: TR-FRET, TRβ LBD, Biotin-SRC2-2, 1 hour at room temperature; for Relative Selectivity TR-α/TR-β: ratio of EC50 TRα/EC50 TRβ, TR-FRET assay
T1 construct: (or 5 μl TRβ LBD, 4×, 2 nM)
T1 sequence (P10828 217-461 limits assumed): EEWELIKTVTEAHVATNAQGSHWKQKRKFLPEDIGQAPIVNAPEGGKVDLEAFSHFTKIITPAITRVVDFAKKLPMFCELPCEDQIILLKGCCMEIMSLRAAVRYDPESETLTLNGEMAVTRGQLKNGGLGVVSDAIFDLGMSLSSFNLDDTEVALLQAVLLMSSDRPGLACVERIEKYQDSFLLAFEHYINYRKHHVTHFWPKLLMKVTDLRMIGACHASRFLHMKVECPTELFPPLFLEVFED
Procedure: as §1, §2, §3, §4

Sequence of TRα LBD (P10827 163-410 isoform P10827-2 limits assumed, other chains not shown): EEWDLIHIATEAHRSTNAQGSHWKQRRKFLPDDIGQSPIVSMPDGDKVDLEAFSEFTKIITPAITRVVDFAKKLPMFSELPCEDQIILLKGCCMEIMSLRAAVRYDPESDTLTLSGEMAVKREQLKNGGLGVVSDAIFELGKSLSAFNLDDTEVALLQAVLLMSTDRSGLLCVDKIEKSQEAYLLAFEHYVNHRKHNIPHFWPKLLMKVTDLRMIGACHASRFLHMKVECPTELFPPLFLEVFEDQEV

SMILES | EC50 (TRα LBD) [nM] | EC50 (TRβ LBD) [nM] | Relative Selectivity TR-α/TR-β (TRβ LBD)
Cc1c[nH]c2ncc(Oc3c(Cl)cc(-n4nc(C#N)c(=O)[nH]c4=O)cc3Cl)cc12 [Compound I8, 2-(3,5-dichloro-4-((3-methyl-1H-pyrrolo[2,3-b]pyridin-5-yl)oxy)phenyl)-3,5-dioxo-2,3,4,5-tetrahydro-1,2,4-triazine-6-carbonitrile] | > 10000 | 2890 | >3.46
N#Cc1nn(-c2cc(Cl)c(Oc3cnc4[nH]ccc4c3)c(Cl)c2)c(=O)[nH]c1=O [Compound I9, 2-(4-((1H-pyrrolo[2,3-b]pyridin-5-yl)oxy)-3,5-dichlorophenyl)-3,5-dioxo-2,3,4,5-tetrahydr o-1,2,4-triazine-6-carbonitrile] | > 10000 | > 10000 | 
CC(=O)OCn1cc(Oc2c(Cl)cc(-n3nc(C#N)c(=O)[nH]c3=O)cc2Cl)cc(C(C)C)c1=O [Compound I24, (5-(2,6-dichloro-4-(6-cyano-3,5-dioxo-4,5-dihydro-1,2,4-triazin-2 (3H)-yl)phenoxy)-3-isopropyl-2-oxopyridin-1 (2H)-yl)methyl acetate] | > 100000 | 273 | 366
CC(C)n1cc(Oc2c(Cl)cc(-n3nc(C#N)c(=O)[nH]c3=O)cc2Cl)cnc1=O [Compound I32, 2-(3,5-dichloro-4-((1-isopropyl-2-oxo-1,2-dihydropyrimidin-5-yl)oxy)phenyl)-3,5-dioxo-2,3,4,5-tetrahydro-1,2,4-triazine-6-carbonitrile] | > 100000 | > 10000 | 
CC(C)n1c(=O)[nH]cc(Oc2c(Cl)cc(-n3nc(C#N)c(=O)[nH]c3=O)cc2Cl)c1=O [Compound I33, 2-(3,5-dichloro-4-((3-isopropyl-2,4-dioxo-1,2,3,4-tetrahydropyrimidin-5-yl)oxy)phenyl)-3,5-dioxo-2,3,4,5-tetrahydro-1,2,4-triazine-6-carbonitrile] | > 100000 | > 10000 | 
CC1(C)C(=O)Nc2ccc(Oc3c(Cl)cc(-n4nc(C#N)c(=O)[nH]c4=O)cc3Cl)cc21 [Compound I19, 2-(3,5-dichloro-4-((3,3-dimethyl-2-oxoindolin-5-yl)oxy)phenyl)-3,5-dioxo-2,3,4,5-tetrahydr 0-1,2,4-triazine-6-carbonitrile] | 24 | 6 | 3.83
CC(C)c1cc(Oc2ccc(-n3nc(C#N)c(=O)[nH]c3=O)cc2Cl)cnc1O [Compound I5, 2-(3-chloro-4-((5-isopropyl-6-oxo-1,6-dihydropyridin-3-yl)oxy)phenyl)-3,5-dioxo-2,3,4,5-tetrahydro-1,2,4-triazine-6-carbonitrile] | > 10000 | > 10000 | 
Cn1c(=O)[nH]c2ccc(Oc3c(Cl)cc(-n4nc(C#N)c(=O)[nH]c4=O)cc3Cl)cc21 [Compound I14, 2-(3,5-dichloro-4-((3-methyl-2-oxo-2,3-dihydro-1H-benzo[d]imidazol-5-yl)oxy)phenyl)-3,5-dioxo-2,3,4,5-tetrahydro-1,2,4-triazine-6-carbonitrile] | 172 | 46 | 3.70
N#Cc1nn(-c2cc(Cl)c(Oc3cnc(O)c(C4CC4)c3)c(Cl)c2)c(=O)[nH]c1=O [Compound I11, 2-(3,5-dichloro-4-((5-cyclopropyl-6-oxo-1,6-dihydropyridin-3-yl)oxy)phenyl)-3,5-dioxo-2,3,4,5-tetrahydro-1,2,4-triazine-6-carbonitrile] | > 10000 | 754 | 
N#Cc1nn(-c2cc(Cl)c(Oc3ccc4[nH]c(=O)oc4c3)c(Cl)c2)c(=O)[nH]c1=O [Compound I20, 2-(3,5-dichloro-4-((2-oxo-2,3-dihydrobenzo[d]oxazol-6-yl)oxy)phenyl)-3,5-dioxo-2,3,4,5-tetrahydro-1,2,4-triazine-6-carbonitrile] | 8370 | 2090 | 4.01
CC(C)c1nc(Oc2c(Cl)cc(-n3nc(C#N)c(=O)[nH]c3=O)cc2Cl)c[nH]c1=O [Compound I27, 2-(3,5-dichloro-4-((6-isopropyl-5-oxo-4,5-dihydropyrazin-2-yl)oxy)phenyl)-3,5-dioxo-2,3,4,5-tetrahydro-1,2,4-triazine-6-carbonitrile] | 6410 | 2260 | 2.83
CC(C)c1cc(Oc2c(F)cc(-n3nc(C#N)c(=O)[nH]c3=O)cc2F)c[nH]c1=O [Compound I7, 2-(3,5-difluoro-4-((5-isopropyl-6-oxo-1,6-dihydropyridin-3-yl)oxy)phenyl)-3,5-dioxo-2,3,4,5-tetrahydro-1,2,4-triazine-6-carbonitrile] | > 10000 | > 10000 | 
CC(C)c1cn(Cc2c(Cl)cc(-n3nc(C#N)c(=O)[nH]c3=O)cc2Cl)cnc1=O [Compound I30, 2-(3,5-dichloro-4-((5-isopropyl-4-oxopyrimidin-1 (4H)-yl)methyl)phenyl)-3,5-dioxo-2,3,4,5-tetrahydro-1,2,4-triazine-6-carbonitrile] | > 100000 | > 10000 | 
N#Cc1nn(-c2cc(Cl)c(Oc3ccc4[nH]ccc4c3)c(Cl)c2)c(=O)[nH]c1=O [Compound I16, 2-(4-((1H-indol-5-yl)oxy)-3,5-dichlorophenyl)-3,5-dioxo-2,3,4,5-tetrahydro-1,2,4-triazine-6-carbonitrile] | 532 | 125 | 4.25
N#Cc1nn(-c2cc(Cl)c(Oc3ccc4[nH]cnc4c3)c(Cl)c2)c(=O)[nH]c1=O [Compound I13, 2-(4-((1H-benzo[d]imidazol-5-yl)oxy)-3,5-dichlorophenyl)-3,5-dioxo-2,3,4,5-tetrahydro-1,2,4-triazine-6-carbonitrile] | 12200 | 2610 | 4.67
Cc1cc(OCC(=O)NS(C)(=O)=O)cc(C)c1Cc1ccc(O)c(C(C)C)c1 [Compound I1, 2-(4-(4-hydroxy-3-isopropylbenzyl)-3,5-dimethylphenoxy)-N-(methylsulfonyl)acetamide] | 6.77 | 17.3 | 0.3915
CC(C)c1cncn(Cc2c(Cl)cc(-n3nc(C#N)c(=O)[nH]c3=O)cc2Cl)c1=O [Compound I29, 2-(3,5-dichloro-4-((5-isopropyl-6-oxopyrimidin-1 (6H)-yl)methyl)phenyl)-3,5-dioxo-2,3,4,5-tetrahydro-1,2,4-triazine-6-carbonitrile] | 5230 | 6400 | 0.82
Cc1cc(-n2nc(C#N)c(=O)[nH]c2=O)cc(C)c1Oc1cnc(O)c(C(C)C)c1 [Compound I6, 2-(4-((5-isopropyl-6-oxo-1,6-dihydropyridin-3-yl)oxy)-3,5-dimethylphenyl)-3,5-dioxo-2,3,4,5-tetrahydro-1,2,4-triazine-6-carbonitrile] | > 10000 | 1980 | >5.05
CC(C)c1cn(Cc2c(Cl)cc(-n3nc(C#N)c(=O)[nH]c3=O)cc2Cl)c(=O)[nH]c1=O [Compound I31, 2-(3,5-dichloro-4-((5-isopropyl-2,4-dioxo-3,4-dihydropyrimidin-1(2H)-yl)methyl)phenyl)-3,5-dioxo-2,3,4,5-tetrahydro-1,2,4-triazine-6-carbonitrile] | > 100000 | > 10000 | 
CC(C)n1cc(Oc2c(Cl)cc(-n3nc(C#N)c(=O)[nH]c3=O)cc2Cl)c(=O)[nH]c1=O [Compound I28, 2-(3,5-dichloro-4-((1-isopropyl-2,4-dioxo-1,2,3,4-tetrahydropyrimidin-5-yl)oxy)phenyl)-3,5-dioxo-2,3,4,5-tetrahydro-1,2,4-triazine-6-carbonitrile] | > 100000 | > 10000 | 
N#Cc1nn(-c2cc(Cl)c(Oc3ccc4[nH]c(=O)[nH]c4c3)c(Cl)c2)c(=O)[nH]c1=O [Compound I15, 2-(3,5-dichloro-4-((2-oxo-2,3-dihydro-1H-benzo[d]imidazol-5-yl)oxy)phenyl)-3,5-dioxo-2,3,4,5-tetrahydro-1,2,4-triazine-6-carbonitrile] | 1790 | 854 | 2.09
